The source of these data is US10160949B2, “Agent for improving sperm-motility” (Tokyo Metropolitan Geriatric Hospital and Institute of …, priority 2013, dated 2018).

In series [1] the test system is sperm on day 5 after collection. In words: Migration distance of forwardly moving sperm by video recording and CASA (ImageJ). Type of series: cell-based, human. Particulars: FIG. 5; for average migration distance compared among untreated, H2 and N2 groups: 10 patients, 10 s of forward movement, P=0.2193. On the procedure:
Then, the recorded video was analyzed by the CASA system (NIH) (computer assisted sperm analysis using ImageJ, description of necessary components and use of free software) to determine the migration distance of forwardly moving sperm.

For series [2], the system named is sperm that had a passage of five days or more after collection. Particulars: for samples in which the percentage of sperm with forward motility was increased: of 17 samples with forward motility less than 15%; for percentage of sperm with forward motility compared with control (untreated) group: duration of gas treatment 5 min.
Procedure: In principle, the percentage (%) of sperm with motility (A+B+C)/(A+B+C+D) was calculated as an average as obtained by repeating the above examination two or three times. […] Here, as used herein, the percentage of sperm with forward motility is represented by the formula: (A+B)/(A+B+C+D).
The percentage of sperm with motility (the percentage of sperm with forward motility and the percentage of sperm with non-forward motility) and the percentage of immotile sperm were compared between the groups. […] To check whether or not the gas passed through the acryl box, another passage was inserted into a water-containing beaker. Whether the gas passed therethrough was confirmed by observing the occurrence of bubbling via the passage in the beaker. With regard to the N2 gas, the procedure was likewise performed and all were carried out at room temperature. A hundred μl of the sperm suspension was added dropwise to a 1008 dish. Before the mixed gas was made to pass therethrough, the dish was placed in the acryl box. […] After 40 min had passed, each sperm suspension was well mixed by pipetting. Next, several μl of the sperm suspension was added dropwise to a Makler container. Then, the sperm concentration, the number of sperm with forward motility, the number of sperm with non-forward motility, and the number of immotile sperm were determined visually. Also, with respect to the untreated group in which the sperm suspension was used as it was, the sperm concentration, the number of sperm with forward motility, the number of sperm with non-forward motility, and the number of immotile sperm were likewise determined visually. […] Samples of the untreated group in which the percentage of sperm with forward motility exceeded 15% were excluded. Regarding the rest samples, one sample was grouped into three treatment groups and each treatment group was measured twice. Specifically, with respect to each sample, the ratio of the number of sperm with forward motility to the total number of sperm in the visual field was defined as the percentage of sperm with forward motility. The ratio of the number of sperm with some motility (a moving flagellum), but without forward motility to the total number of sperm was defined as the percentage of sperm with non-forward motility.
The nature of series [3]: Concentration of hydrogen in liquid (hydrogen electrode). Type of series: physicochemical. The following applies: 10 min after 30 min of the H2 treatment. On the procedure:
Next, the culture solution was left to stand. […] The culture solution as so prepared was used to wash sperm, and a change in their motility was examined. […] After re-centrifugation, the concentration was decreased to 100 μM.

In a further series the test system is freeze-thawed sperm. On the procedure: Semen that was transferred to the clinic within four hours after ejaculation was suspended in a solution in which equal amounts of the Cleavage Medium and TEST-yolk buffer (TYB; Irvine Scientific, CA, USA) had been mixed. Then, the mixture was dispensed into cryotubes. The resulting cryotubes were once exposed to nitrogen vapor for 5 min, and were then cryopreserved in liquid nitrogen. At the time of thawing, each cryotube was heated in warm water at 37° C. After that, the sperm suspension in the cryotube was dispensed into four vials.
After the dispensed sperm suspension was washed for 5 min with each sperm washing medium, the motility of sperm was measured.

The test system of the next series is mitochondria of sperm. The following applies: FIG. 7(d); compared with untreated and N2 treatment groups; P<0.001.
For series [4] the following is noted: mixed gas containing 50% hydrogen molecules used for bubbling of a liquid; cited from earlier work.
[5] abbreviates: FIG. 3(a), sperm 5 days or more after collection, mixed gas treatment 40 min, 30 samples.
Where [6] appears, read: FIG. 4, 17 samples from patients with forward motility less than 15%.

The structures appear in SMILES notation. Where two headings read alike, the source gives them in different places.

Source text for mitochondria of sperm: The stained sperm were visualized using a laser scanning confocal microscope (Leica, Wetzlar, Germany). In addition, the viability of sperm was checked by PI fluorescence staining.
Meanwhile, the differential interference images were designated as DIC (Differential interference contrast). […] FIG. 7(d) is a graph showing the results of semi-quantifying, using the ImageJ, the fluorescent intensity of the sperm stained with TMRM.

As to `N#N` [N2, nitrogen, reference compound], the “average migration distance compared among untreated, H2 and N2 groups” value in series [1] is “no significant difference”. Further, the figures for the “percentage of sperm with forward motility (average)” value (“percentage of sperm … (average)” for short) in series [2] (setting [5]) and in series [2] (setting [6]) were 7.7% and 3.6%, respectively. Further, the “samples in which the percentage of sperm with forward motility was increased” value in series [2] (FIG. 4) is on record as “four”.
On to `[HH]` [H2, hydrogen], for which the “average migration distance compared among untreated, H2 and N2 groups” value in series [1] is reported as “no significant difference”. Besides, in series [1] (compared with untreated and N2 groups), the “migration distance per second of the sperm” value was “the longest one”. Also, the “hydrogen in 10 μl of the sperm suspension” value in series [3] is “eliminated”. The “percentage of sperm … (average)” value in the series with freeze-thawed sperm (FIG. 8(a), 6 samples, patients with forward motility 50% or higher, washing medium containing 50% of H2, 5 min) was determined as 61.3%; in the series on freeze-thawed sperm (FIG. 8(a), 6 samples, patients with forward motility 50% or higher, washing medium containing 75% of H2, 5 min) it was 71.0%; in the series on freeze-thawed sperm (FIG. 8(a), 6 samples, patients with forward motility 50% or higher, washing medium containing 100% of H2, 5 min) it was 70.0%; in the series with freeze-thawed sperm (FIG. 8(b), 15 samples, patients with forward motility less than 50%, washing medium containing 50% of H2, 5 min), 41.2%; with freeze-thawed sperm (FIG. 8(b), 15 samples, patients with forward motility less than 50%, washing medium containing 75% of H2, 5 min) it was 40.8%; in the series with freeze-thawed sperm (FIG. 8(b), 15 samples, patients with forward motility less than 50%, washing medium containing 100% of H2, 5 min) it was 31.4%. For the same compound, the “percentage of sperm … (average)” value in series [2] (setting [5]) is recorded as 16.8%; in series [2] (setting [6]), 11%. Further, the “samples with percentage of sperm with forward motility higher than in the control” value in series [2] (FIG. 3(b), duration of H2 treatment 30 or 60 min) is “about 70 % of the samples”. Also, the “percentage of sperm with forward motility compared with control (untreated) group” value is recorded as “tended to decrease” in series [2] (FIG. 3(b)) and “did not result in the recovery of the motility of sperm” in series [2] (FIG. 3(b), listed as gaseous agent for improving sperm-motility). The “samples in which the percentage of sperm with forward motility was increased” value in series [2] (FIG. 4) came to 16 samples. The “time course of forward motility after treatment” value in series [2] (FIG. 6, 30 to 150 min after 30 min H2 treatment, 10 patients) was “a big change in the forward motility of sperm was not observed”. In addition, the “motility 24 hours after treatment” value in series [2] (FIG. 6, H2 treatment 30 min, retreatment 30 min at 24 hours) is recorded as “had motility even after 24 hours”. In series [2] (of 12 samples (25%)), the “samples of sperm with non-forward motility among samples in which forward motility was not recovered” value is given as 3 samples. For the same compound, in series [2] (of 17 samples (35%), no recovery in untreated and N2 groups), the “samples in which forward movement was recovered only in the H2 treatment group” value was “Six”. In addition, the “samples in which the H2 treatment group exhibited a longer migration distance (increased forward motility) than the N2 treatment group” value in series [2] (of 18 samples in which forward motility was recovered (94%), P<0.01) is listed as 17 samples. In addition, the “intensity of TMRM fluorescence (mitochondrial membrane potential)” value with mitochondria of sperm was “strong intensity of TMRM fluorescence”. For the same compound, the hydrogen solubility entry in series [4] is listed as “about 0.4 mM”.
